Assays:
Cytochrome P450 3A4 = Cytochrome P450 3A4 (Homo sapiens, UniProt P08684)
Description: Inhibition of human recombinant CYP3A4 by luceferin-based assay

Cytochrome P450 1A2 = target: T1, Cytochrome P450 1A2 (Homo sapiens, UniProt P05177)
T1 sequence (P05177 whole entry): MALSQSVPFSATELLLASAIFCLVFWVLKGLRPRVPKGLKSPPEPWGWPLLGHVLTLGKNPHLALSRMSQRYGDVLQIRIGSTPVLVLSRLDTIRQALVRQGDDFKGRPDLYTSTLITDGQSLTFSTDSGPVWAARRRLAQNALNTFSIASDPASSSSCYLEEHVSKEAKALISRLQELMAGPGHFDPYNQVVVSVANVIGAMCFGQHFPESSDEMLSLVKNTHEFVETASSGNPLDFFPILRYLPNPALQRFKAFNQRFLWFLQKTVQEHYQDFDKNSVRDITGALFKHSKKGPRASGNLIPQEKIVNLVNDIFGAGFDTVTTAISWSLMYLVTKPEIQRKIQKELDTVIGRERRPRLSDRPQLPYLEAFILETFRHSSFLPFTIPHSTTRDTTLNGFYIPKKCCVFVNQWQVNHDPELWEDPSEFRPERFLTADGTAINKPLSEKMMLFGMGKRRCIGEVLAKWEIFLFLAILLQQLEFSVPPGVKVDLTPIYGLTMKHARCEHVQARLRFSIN
Description: Inhibition of human recombinant CYP1A2 by luceferin-based assay

Cytochrome P450 2C9 = Cytochrome P450 2C9 (Homo sapiens, UniProt P11712)
Description: Inhibition of human recombinant CYP2C9 by luceferin-based assay

in vitro = conditions: mouse, ht-22
Description: Cytotoxicity against mouse HT22 cells after 48 hrs by MTT assay

[1] = target: Voltage-gated inwardly rectifying potassium channel KCNH2 (Homo sapiens, UniProt Q12809)
Description: Displacement of [3H]astemizole from human ERG expressed in HEK293 cells

[2] = target: T2, 5-hydroxytryptamine receptor 2C (Homo sapiens, UniProt P28335); assay: biochemical; format: cell-based, CHO-K1
T2 sequence (P28335 whole entry): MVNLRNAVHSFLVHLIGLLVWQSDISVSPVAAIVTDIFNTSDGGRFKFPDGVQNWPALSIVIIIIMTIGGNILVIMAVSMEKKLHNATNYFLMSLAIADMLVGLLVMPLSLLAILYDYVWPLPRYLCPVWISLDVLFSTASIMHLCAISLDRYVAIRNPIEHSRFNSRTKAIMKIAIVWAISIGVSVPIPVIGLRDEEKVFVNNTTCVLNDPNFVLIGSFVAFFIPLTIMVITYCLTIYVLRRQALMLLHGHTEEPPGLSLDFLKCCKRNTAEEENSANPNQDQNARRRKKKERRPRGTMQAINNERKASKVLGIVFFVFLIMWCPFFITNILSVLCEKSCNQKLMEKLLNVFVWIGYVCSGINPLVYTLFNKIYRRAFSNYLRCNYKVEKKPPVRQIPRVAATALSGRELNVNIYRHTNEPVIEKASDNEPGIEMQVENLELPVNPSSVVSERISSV
Description: Displacement of [3H]mesulergine from human recombinant 5-HT2C receptor expressed in CHO-K1 cells

Cytochrome P450 2D6 = Cytochrome P450 2D6 (Homo sapiens, UniProt P10635)
Description: Inhibition of human recombinant CYP2D6 by luceferin-based assay

[3] = target: 5-hydroxytryptamine receptor 7 (Homo sapiens, UniProt P34969)
Description: Inhibition of 5HT7 receptor by competition binding assay

D(4) dopamine receptor = target: T3, D(4) dopamine receptor (Homo sapiens, UniProt P21917)
T3 sequence (P21917 whole entry): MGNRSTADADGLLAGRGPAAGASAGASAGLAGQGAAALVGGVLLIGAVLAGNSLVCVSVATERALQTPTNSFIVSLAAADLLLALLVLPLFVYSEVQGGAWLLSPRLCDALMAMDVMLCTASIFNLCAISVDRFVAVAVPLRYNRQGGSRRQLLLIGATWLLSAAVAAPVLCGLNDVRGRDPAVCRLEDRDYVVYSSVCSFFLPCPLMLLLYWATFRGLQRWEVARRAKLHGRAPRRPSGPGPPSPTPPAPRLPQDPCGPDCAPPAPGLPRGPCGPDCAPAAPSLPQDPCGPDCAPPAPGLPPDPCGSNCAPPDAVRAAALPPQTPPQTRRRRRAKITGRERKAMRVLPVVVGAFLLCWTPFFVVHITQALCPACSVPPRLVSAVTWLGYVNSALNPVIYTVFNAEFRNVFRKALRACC
Description: inhibition of dopamine D4 receptor by competition binding assay

D(3) dopamine receptor = D(3) dopamine receptor (Homo sapiens, UniProt P35462)
Description: Inhibition of dopamine D3 receptor by competition binding assay

[4] = target: T4, 5-hydroxytryptamine receptor 1A (Homo sapiens, UniProt P08908)
T4 sequence (P08908 whole entry): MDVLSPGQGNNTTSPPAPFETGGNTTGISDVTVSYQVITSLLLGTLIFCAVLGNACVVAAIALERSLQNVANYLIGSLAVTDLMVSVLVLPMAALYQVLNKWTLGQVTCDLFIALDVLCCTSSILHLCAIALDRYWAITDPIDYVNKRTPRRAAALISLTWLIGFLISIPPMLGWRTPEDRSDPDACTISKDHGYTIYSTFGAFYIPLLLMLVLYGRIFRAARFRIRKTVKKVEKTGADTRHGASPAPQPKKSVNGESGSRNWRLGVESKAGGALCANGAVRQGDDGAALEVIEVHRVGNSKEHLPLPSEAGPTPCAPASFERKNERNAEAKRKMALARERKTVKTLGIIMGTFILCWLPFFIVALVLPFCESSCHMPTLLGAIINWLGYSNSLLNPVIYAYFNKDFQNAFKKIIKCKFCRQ
Description: Inhibition of 5HT1A receptor by competition binding assay

D(2) dopamine receptor = D(2) dopamine receptor (Homo sapiens, UniProt P14416)
Description: Inhibition of dopamine D2 receptor by competition binding assay

[5] = target: 5-hydroxytryptamine receptor 6 (Homo sapiens, UniProt P50406)
Chain of 5-hydroxytryptamine receptor 6 (P50406 whole entry): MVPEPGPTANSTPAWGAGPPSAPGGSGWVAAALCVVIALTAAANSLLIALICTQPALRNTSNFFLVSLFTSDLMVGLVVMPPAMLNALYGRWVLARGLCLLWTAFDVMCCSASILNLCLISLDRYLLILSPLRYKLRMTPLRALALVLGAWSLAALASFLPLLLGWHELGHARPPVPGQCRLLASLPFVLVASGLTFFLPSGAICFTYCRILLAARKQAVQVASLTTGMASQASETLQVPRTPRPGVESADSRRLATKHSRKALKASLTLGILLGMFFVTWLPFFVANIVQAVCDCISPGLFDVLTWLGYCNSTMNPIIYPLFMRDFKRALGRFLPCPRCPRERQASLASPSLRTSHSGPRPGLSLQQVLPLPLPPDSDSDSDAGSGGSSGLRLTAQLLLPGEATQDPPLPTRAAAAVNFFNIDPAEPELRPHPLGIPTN
Description: Inhibition of 5HT6 receptor by competition binding assay

Chain of D(2) dopamine receptor (P14416 whole entry): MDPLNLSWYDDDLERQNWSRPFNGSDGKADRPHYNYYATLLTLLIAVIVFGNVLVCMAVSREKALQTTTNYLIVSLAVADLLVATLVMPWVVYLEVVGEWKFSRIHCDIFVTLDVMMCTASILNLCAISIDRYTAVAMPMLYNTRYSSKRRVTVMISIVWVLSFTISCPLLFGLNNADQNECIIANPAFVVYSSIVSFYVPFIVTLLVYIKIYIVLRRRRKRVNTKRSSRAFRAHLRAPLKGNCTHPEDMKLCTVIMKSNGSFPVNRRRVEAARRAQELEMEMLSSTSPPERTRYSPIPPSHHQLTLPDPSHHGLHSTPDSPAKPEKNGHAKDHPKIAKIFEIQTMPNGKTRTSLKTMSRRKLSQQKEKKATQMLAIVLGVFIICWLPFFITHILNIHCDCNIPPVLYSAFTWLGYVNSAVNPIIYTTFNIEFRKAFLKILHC
Chain of 5-hydroxytryptamine receptor 7 (P34969 whole entry): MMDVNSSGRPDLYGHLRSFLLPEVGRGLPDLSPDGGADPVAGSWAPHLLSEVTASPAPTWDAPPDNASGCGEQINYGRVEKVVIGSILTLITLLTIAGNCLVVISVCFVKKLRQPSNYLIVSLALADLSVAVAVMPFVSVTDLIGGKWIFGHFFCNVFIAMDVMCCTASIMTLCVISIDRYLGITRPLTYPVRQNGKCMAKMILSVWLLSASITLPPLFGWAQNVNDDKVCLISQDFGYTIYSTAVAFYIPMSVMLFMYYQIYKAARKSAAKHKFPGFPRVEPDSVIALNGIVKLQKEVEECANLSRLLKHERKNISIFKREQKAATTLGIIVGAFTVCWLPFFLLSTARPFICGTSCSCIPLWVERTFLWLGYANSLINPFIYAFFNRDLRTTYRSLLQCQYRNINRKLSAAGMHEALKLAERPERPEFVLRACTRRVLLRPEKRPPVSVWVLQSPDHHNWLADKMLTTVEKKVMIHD
Chain of D(3) dopamine receptor (P35462 whole entry): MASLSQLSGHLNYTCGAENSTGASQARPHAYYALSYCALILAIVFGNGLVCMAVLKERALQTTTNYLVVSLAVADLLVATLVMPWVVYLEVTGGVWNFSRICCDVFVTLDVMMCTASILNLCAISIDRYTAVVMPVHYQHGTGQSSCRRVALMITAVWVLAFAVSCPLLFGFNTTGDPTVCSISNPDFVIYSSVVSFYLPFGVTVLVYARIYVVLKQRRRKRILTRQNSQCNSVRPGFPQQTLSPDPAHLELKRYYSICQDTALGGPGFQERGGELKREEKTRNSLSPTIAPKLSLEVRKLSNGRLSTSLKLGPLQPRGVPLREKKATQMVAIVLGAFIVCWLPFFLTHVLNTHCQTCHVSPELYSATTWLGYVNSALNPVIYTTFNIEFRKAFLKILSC
Chain of Voltage-gated inwardly rectifying potassium channel KCNH2 (Q12809 whole entry): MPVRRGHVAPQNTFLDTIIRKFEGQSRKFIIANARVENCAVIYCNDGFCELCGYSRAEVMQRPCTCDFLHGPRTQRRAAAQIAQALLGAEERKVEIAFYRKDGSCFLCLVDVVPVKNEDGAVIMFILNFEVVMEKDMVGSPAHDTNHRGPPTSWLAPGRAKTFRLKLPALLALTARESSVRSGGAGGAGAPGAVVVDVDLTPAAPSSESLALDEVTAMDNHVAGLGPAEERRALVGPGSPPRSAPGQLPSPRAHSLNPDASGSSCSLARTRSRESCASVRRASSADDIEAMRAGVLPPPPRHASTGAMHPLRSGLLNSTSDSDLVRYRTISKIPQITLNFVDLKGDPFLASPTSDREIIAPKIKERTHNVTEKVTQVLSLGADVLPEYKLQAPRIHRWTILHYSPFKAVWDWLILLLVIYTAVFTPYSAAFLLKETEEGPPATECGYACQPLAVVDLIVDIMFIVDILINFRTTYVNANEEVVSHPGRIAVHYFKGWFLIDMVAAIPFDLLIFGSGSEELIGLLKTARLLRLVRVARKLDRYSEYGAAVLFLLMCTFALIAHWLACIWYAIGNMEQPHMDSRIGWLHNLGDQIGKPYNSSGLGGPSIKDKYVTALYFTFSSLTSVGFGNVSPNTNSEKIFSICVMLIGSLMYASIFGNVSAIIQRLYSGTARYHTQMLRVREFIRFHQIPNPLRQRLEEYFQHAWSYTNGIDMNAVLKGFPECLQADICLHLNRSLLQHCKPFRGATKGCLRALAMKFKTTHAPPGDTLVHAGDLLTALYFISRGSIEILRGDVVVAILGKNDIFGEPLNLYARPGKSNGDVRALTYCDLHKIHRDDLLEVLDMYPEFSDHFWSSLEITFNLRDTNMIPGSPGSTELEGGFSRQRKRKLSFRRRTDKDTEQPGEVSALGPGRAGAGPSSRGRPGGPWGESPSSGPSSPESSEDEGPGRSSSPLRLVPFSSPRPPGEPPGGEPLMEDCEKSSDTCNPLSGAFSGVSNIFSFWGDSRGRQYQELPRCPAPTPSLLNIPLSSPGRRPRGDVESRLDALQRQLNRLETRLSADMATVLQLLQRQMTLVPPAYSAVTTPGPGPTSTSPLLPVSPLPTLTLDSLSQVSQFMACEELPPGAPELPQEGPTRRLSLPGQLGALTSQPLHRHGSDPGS
Chain of Cytochrome P450 2D6 (P10635 whole entry): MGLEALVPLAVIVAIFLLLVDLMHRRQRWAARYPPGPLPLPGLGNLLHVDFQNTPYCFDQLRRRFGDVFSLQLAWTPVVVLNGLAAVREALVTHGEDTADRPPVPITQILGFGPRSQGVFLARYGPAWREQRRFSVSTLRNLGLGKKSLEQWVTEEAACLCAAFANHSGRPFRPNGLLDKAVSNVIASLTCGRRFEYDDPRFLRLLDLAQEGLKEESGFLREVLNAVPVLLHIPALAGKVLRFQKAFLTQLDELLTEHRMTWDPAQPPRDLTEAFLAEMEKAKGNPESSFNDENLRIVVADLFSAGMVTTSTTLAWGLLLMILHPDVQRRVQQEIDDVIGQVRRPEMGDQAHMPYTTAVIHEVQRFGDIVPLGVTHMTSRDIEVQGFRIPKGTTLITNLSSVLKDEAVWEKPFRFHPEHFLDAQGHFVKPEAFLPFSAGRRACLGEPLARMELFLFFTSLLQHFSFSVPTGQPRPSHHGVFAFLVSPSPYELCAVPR
Chain of Cytochrome P450 3A4 (P08684 whole entry): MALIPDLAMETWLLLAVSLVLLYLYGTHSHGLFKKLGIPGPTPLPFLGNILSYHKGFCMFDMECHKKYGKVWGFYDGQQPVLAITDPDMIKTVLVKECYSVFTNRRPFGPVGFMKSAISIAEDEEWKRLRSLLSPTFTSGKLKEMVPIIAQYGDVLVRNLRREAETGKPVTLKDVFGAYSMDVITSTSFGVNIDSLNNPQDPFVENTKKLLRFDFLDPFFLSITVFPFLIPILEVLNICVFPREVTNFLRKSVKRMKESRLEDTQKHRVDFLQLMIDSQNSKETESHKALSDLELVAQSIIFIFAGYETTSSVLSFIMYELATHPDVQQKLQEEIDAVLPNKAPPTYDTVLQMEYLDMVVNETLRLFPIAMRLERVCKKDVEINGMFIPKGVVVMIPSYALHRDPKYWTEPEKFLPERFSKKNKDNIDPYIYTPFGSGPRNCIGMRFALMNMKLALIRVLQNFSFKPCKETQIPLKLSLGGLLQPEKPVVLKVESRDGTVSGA
Chain of Cytochrome P450 2C9 (P11712 whole entry): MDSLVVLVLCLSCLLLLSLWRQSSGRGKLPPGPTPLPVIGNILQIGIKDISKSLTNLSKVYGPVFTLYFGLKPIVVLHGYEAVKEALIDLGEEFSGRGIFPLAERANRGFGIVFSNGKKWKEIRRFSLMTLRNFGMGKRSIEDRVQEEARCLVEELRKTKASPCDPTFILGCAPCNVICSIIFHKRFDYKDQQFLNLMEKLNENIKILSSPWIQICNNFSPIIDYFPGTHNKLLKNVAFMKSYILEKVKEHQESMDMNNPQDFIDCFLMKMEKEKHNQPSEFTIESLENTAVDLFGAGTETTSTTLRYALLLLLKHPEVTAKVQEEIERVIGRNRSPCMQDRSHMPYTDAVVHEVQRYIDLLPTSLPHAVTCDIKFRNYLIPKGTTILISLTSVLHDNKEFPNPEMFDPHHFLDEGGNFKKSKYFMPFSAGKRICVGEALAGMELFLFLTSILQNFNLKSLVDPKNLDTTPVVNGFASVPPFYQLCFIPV

With `Cc1cccc(N2CCN(CCCNC(=O)c3nc(C)n(-c4ccc5c(c4)OCCO5)c3C)CC2)c1C` as the compound, how does the IC50 (Cytochrome P450 3A4) read?
Its IC50 is over 20000 nM.

What about the IC50 (Cytochrome P450 1A2) of the same compound?
The IC50 was over 20000 nM.

And the IC50 (Cytochrome P450 2C9)?
Its IC50 is 4400 nM.

What about the CC50 at 48 h (in vitro) of the same compound?
Its CC50 at 48 h is 19300 nM.

What about the IC50 [1] of the same compound?
The IC50 was 8700 nM.

What about the IC50 [2] of the same compound?
The IC50 was 4000 nM.

What about the IC50 (Cytochrome P450 2D6) of the same compound?
The IC50 was 17900 nM.

Which IC50 [3] does the source give for `Cc1nc(C(=O)NCCCN2CCN(c3cccc(Cl)c3Cl)CC2)c(C)n1-c1ccccc1` here?
The IC50 was 11 nM.

And the IC50 (D(4) dopamine receptor)?
Its IC50 is over 10000 nM.

What about the IC50 (D(3) dopamine receptor) of the same compound?
Its IC50 is 493 nM.

What about the IC50 [4] of the same compound?
The IC50 was 4.9 nM.

What about the IC50 (D(2) dopamine receptor) of the same compound?
The IC50 was 1370 nM.

What about the IC50 [5] of the same compound?
The IC50 was 136 nM.

With `Cc1nc(C(=O)NCCN2CCN(c3cccc(Cl)c3Cl)CC2)c(C)n1-c1ccccc1` as the compound, how does the IC50 [3] read?
The IC50 was 6.8 nM.

What about the IC50 [1] of the same compound?
Its IC50 is over 10000 nM.

And the IC50 (D(4) dopamine receptor)?
The IC50 was 3940 nM.

And the IC50 (D(3) dopamine receptor)?
Its IC50 is 2190 nM.

And the IC50 [4]?
The IC50 was 3.9 nM.

And the IC50 (D(2) dopamine receptor)?
The IC50 was 908 nM.

And the IC50 [5]?
The IC50 was 1680 nM.

From ChEMBL document CHEMBL1821711, “Design and synthesis of novel arylpiperazine derivatives containing the imidazole core targeting 5-HT(2A) receptor and 5-HT transporter” (J Med Chem, 2011)
